{
  "source": "patent US9974727B2",
  "about": "“Hair growth and hair restoration material” (INSTITUTE OF RHEOLOGICAL FUNCTION OF FOOD CO., LTD., priority 2011, dated 2018)",
  "assay_type_in_all_cases": "in vivo",
  "key": {"C3H male mice": {"test_system": "C3H male mice", "assay": "Hair growth test on shaved backs of mice", "settings": "for Hair growth state 2 weeks after application: 20 μL on shaved back, mice with hair growth / mice", "description": "The FCG obtained in Production Example 1, the SCG obtained in Production Example 2, the CSG obtained in Production Example 3, and the RSG obtained in Production Example 4 were each dissolved, in 70% by mass ethanol water, and the following solutions were prepared:\nFurthermore, commercially available cholesterol (hereinafter, abbreviated as “Cho”) was dissolved in 70% by mass ethanol water to prepare a Cho 10 pg/mL solution.\nThe body hair on the back of 8 to 9-week-old C3H male mice was shaved using an electric clippers for animal use (“Thrive clipper, Model 600AD” manufactured by Daito Electric Company) together with a rotary shaver (National ES611).\nEach of the sample solutions (20 μL) was applied in four portions to the skin in central parts of the shaved backs of mice while repeating air drying. The application was conducted 24 hours after shaving.\nThe hair growth effect was evaluated 2 weeks after the application of the sample solution on the basis of observation with the naked eye and photographs taken by a digital camera. Furthermore, as controls, mice applied with 70% by mass ethanol water and mice not applied with a sample solution were used."}, "[1]": {"test_system": "Hsp70 (heat shock protein 70)", "assay": "Preliminary test for hair growth using mice, Hsp70 immunostaining of skin", "settings": "10 pg/mL, 3 hours after application; hair papilla cells of hair root in telogen", "description": "(§1) A 70% by mass aqueous ethanol solution containing FCG obtained in Production Example 1 at a concentration of 10 pg/mL (sample solution) was prepared.\n(§2) The sample solution (20 μL) was applied onto the shaved back skin of four 9-week-old ICR male mice, and skin was collected after 3 hours and after 6 hours.\n(§3) The skin was subjected to immunostaining for bFGF (basic fibroblast growth factor), Hsp70 (heat shock protein 70), and VEGF (vascular endothelial cell growth factor) by the fluorescent antibody technique and HE staining (hematoxylin-eosin staining), and samples of 14 μm-thick cryostat sections were prepared."}, "[2]": {"test_system": "bFGF (basic fibroblast growth factor)", "assay": "Preliminary test for hair growth using mice, bFGF immunostaining of skin", "description": "as §1, §2, §3"}, "[3]": {"test_system": "VEGF (vascular endothelial cell growth factor)", "assay": "Preliminary test for hair growth using mice, VEGF immunostaining of skin", "settings": "10 pg/mL, 3 hours after application", "description": "as §1, §2, §3"}, "head hair": {"test_system": "head hair", "assay": "Hair growth effect on human head hair", "settings": "person", "description": "(§4) The hair growth effect of FCG on head hair of a person was examined.\nAfter hair was thoroughly washed and dried completely with a dryer, about 3.5 mL of a 70% by mass aqueous ethanol solution (sample solution) containing FCG at a concentration of 10 pg/mL was evenly applied, to the scalp once a day.\nBefore use of the sample solution and 4 months after start of use, photographs were taken by a digital camera from the forehead and the top of head.\nas §4\nAfter hair was thoroughly washed and naturally dried completely, about 3.5 mL of a 70% by mass aqueous ethanol solution (sample solution) containing FCG at a concentration of 10 pg/mL was evenly applied to the scalp once a day.\nOn the date of start of use of the sample solution and 5 months after start of use, photographs of the forehead and the top of head were taken by a digital camera."}, "[4]": {"test_system": "shaved back skin of ICR male mice", "assay": "Preliminary test for hair growth using mice, HE staining of skin", "settings": "10 pg/mL, 20 μL", "description": "as §1, §2, §3"}, "[5]": {"settings": "C3H mice, 2 weeks after application"}, "[6]": {"settings": "10 pg/mL, 6 hours after application"}, "[7]": {"settings": "10 pg/mL, about 3.5 mL once a day, 5 months after start of use"}},
  "data": [
    {"smiles": "CC(C)CCC[C@@H](C)[C@H]1CC[C@H]2[C@@H]3CC=C4C[C@@H](O)CC[C@]4(C)[C@H]3CC[C@]12C", "note": "[Cho, cholesterol, reference compound]", "values": [
      {"measurement": "Hair growth state 2 weeks after application", "setting": "C3H male mice; 10 pg/mL in 70% ethanol water", "value": "4/8"},
      {"measurement": "Hair growth action (summary of Table 1)", "setting": "C3H male mice; [5]", "value": "weak"}
    ]},
    {"smiles": "CC(C)CCC[C@@H](C)[C@H]1CC[C@H]2[C@@H]3CC=C4C[C@@H](O[C@@H]5O[C@H](CO)[C@@H](O)[C@H](O)[C@H]5O)CC[C@]4(C)[C@H]3CC[C@]12C", "note": "[FCG, cholesteryl glucopyranoside]", "values": [
      {"measurement": "Hsp70 expression (immunostaining)", "setting": "[1]", "value": "Weak to moderate expression of Hsp70 was detected"},
      {"measurement": "bFGF expression (immunostaining)", "setting": "[2]; 10 pg/mL, 3 hours after application, hair follicle, epidermis, bulge region, external root sheath, erector pili muscles", "value": "Strong expression of bFGF was detected"},
      {"measurement": "bFGF expression in erector pili muscles (immunostaining)", "setting": "[2]; [6]", "value": "reduced to moderate"},
      {"measurement": "bFGF expression in hair papilla cells (immunostaining)", "setting": "[2]; [6]", "value": "became weak"},
      {"measurement": "bFGF expression, conclusion", "setting": "[2]; epidermis, external root sheath, bulge region, hair matrix", "value": "expression of bFGF is induced"},
      {"measurement": "Hair growth state 2 weeks after application", "setting": "C3H male mice; 1 pg/mL in 70% ethanol water", "value": "6/8"},
      {"measurement": "Hair growth state 2 weeks after application", "setting": "C3H male mice; 10 pg/mL in 70% ethanol water", "value": "4/8"},
      {"measurement": "Hair growth state 2 weeks after application", "setting": "C3H male mice; 100 pg/mL in 70% ethanol water", "value": "5/7"},
      {"measurement": "Death of mice during hair growth test", "setting": "C3H male mice; 100 pg/mL, 2 weeks after application", "value": "one mouse died"},
      {"measurement": "Hair growth action at 1 pg/mL compared with 10 pg/mL", "setting": "C3H male mice; [5]", "value": "higher"},
      {"measurement": "VEGF expression (immunostaining)", "setting": "[3]", "value": "VEGF positive reaction was found in hair papilla cells in the hair matrix"},
      {"measurement": "Hair growth on forehead and top of head", "setting": "head hair; 10 pg/mL, about 3.5 mL once a day, 4 months after start of use", "value": "a large amount of hair growth was observed"},
      {"measurement": "Hair growth on forehead", "setting": "head hair; [7]", "value": "hair growth was observed"},
      {"measurement": "Hair growth on top of head", "setting": "head hair; [7]", "value": "a good amount of hair growth was observed"},
      {"measurement": "Side effects", "setting": "head hair; one year after start of use", "value": "side effects are not recognized"},
      {"measurement": "HE staining, hair root and hair bulb", "setting": "[4]; 3 hours after application, one of two mice", "value": "local extension of the hair root and enlargement of the hair bulb were observed"},
      {"measurement": "HE staining, hair root", "setting": "[4]; 6 hours after application", "value": "Most of the hair roots extended to the subcutaneous tissue"}
    ]},
    {"smiles": "CC(C)CCC[C@@H](C)[C@H]1CC[C@H]2[C@@H]3CC=C4C[C@@H](O[C@@H]5O[C@H](CO)[C@@H](O)[C@H](O)[C@H]5O)CC[C@]4(C)[C@H]3CC[C@]12C", "note": "[SCG, cholesteryl-β-D-glucopyranoside]", "values": [
      {"measurement": "Hair growth state 2 weeks after application", "setting": "C3H male mice; 1 pg/mL in 70% ethanol water", "value": "6/8"},
      {"measurement": "Hair growth state 2 weeks after application", "setting": "C3H male mice; 10 pg/mL in 70% ethanol water", "value": "⅝"},
      {"measurement": "Hair growth state 2 weeks after application", "setting": "C3H male mice; 100 pg/mL in 70% ethanol water", "value": "⅜"},
      {"measurement": "Hair growth action (summary of Table 1)", "setting": "C3H male mice; [5]", "value": "same hair growth action as that of the cholesteryl glucopyranoside derived from feathers (FCG)"}
    ]}
  ]
}
